Tests used:
Assay in all cases: relative viability (nuclei count vs DMSO), 5 days (fraction); higher = more cells survive
Zebularine + OSI-027 = compound: O=c1ncccn1[C@@H]1O[C@H](CO)[C@@H](O)[C@H]1O [Zebularine] + COc1cccc2cc(-c3nc([C@H]4CC[C@H](C(=O)O)CC4)n4ncnc(N)c34)[nH]c12 [OSI-027] (partner 0.5 µM)
Outline: (§1)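 The day after seeding in 1536-well plates, lung cancer cell lines were treated by pin tool with a single drug, or with a fixed anchor-drug dose together with five library-drug doses (not always all listed) in √10 steps. After 5 days, a combined fix-and-stain solution (final 0.05% Triton X-100, 1% formaldehyde, 1 ug/ml Hoechst) was added. Nuclei counted on 4× images gave relative viability as treated counts over vehicle counts, reported as the median of duplicate plates.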

BI-D1870 + Luminespib = compound: CC(C)CCN1c2nc(Nc3cc(F)c(O)c(F)c3)ncc2N(C)C(=O)C1C [BI-D1870] + CCNC(=O)c1noc(-c2cc(C(C)C)c(O)cc2O)c1-c1ccc(CN2CCOCC2)cc1 [Luminespib] (partner 0.01 µM)
Outline: as §1

BI-D1870 + Pictilisib = compound: CC(C)CCN1c2nc(Nc3cc(F)c(O)c(F)c3)ncc2N(C)C(=O)C1C [BI-D1870] + CS(=O)(=O)N1CCN(Cc2cc3nc(-c4cccc5[nH]ncc45)nc(N4CCOCC4)c3s2)CC1 [Pictilisib] (partner 1 µM)
Outline: as §1

Zebularine + AZD7762 = compound: O=c1ncccn1[C@@H]1O[C@H](CO)[C@@H](O)[C@H]1O [Zebularine] + NC(=O)Nc1cc(-c2cccc(F)c2)sc1C(=O)N[C@H]1CCCNC1 [AZD7762] (partner 0.2 µM)
Outline: as §1

Cell Line	relative viability (Zebularine + OSI-027; first compound 1 µM)	relative viability (Zebularine + OSI-027; first compound 3.162 µM)	relative viability (Zebularine + OSI-027; first compound 10 µM)	relative viability (Zebularine + OSI-027; first compound 31.62 µM)	relative viability (Zebularine + OSI-027; first compound 100 µM)	relative viability (BI-D1870 + Luminespib; first compound 0.04 µM)	relative viability (BI-D1870 + Luminespib; first compound 0.1265 µM)	relative viability (BI-D1870 + Luminespib; first compound 0.4 µM)	relative viability (BI-D1870 + Luminespib; first compound 1.265 µM)	relative viability (BI-D1870 + Luminespib; first compound 4 µM)	relative viability (BI-D1870 + Pictilisib; first compound 0.04 µM)	relative viability (BI-D1870 + Pictilisib; first compound 0.1265 µM)	relative viability (BI-D1870 + Pictilisib; first compound 0.4 µM)	relative viability (BI-D1870 + Pictilisib; first compound 1.265 µM)	relative viability (BI-D1870 + Pictilisib; first compound 4 µM)	relative viability (Zebularine + AZD7762; first compound 1 µM)	relative viability (Zebularine + AZD7762; first compound 3.162 µM)	relative viability (Zebularine + AZD7762; first compound 10 µM)	relative viability (Zebularine + AZD7762; first compound 31.62 µM)	relative viability (Zebularine + AZD7762; first compound 100 µM)
NCI-H1651	0.735	0.69	0.549	0.716	0.447	0.902	0.743	0.764	1.03	0.843	0.549	0.423	0.566	0.516	0.551	0.506	0.486	0.445	0.466	0.294
NCI-H1666	0.721	0.785	0.634	0.947	0.979	1.02	0.977	1.01	1.05	0.825	0.655	0.442	0.409	0.584	0.321	0.91	0.841	0.726	0.916	0.654
NCI-H1734	0.672	0.556	0.488	0.425	0.317	0.19	0.175	0.188	0.187	0.222	0.5	0.401	0.434	0.472	0.358	0.638	0.575	0.366	0.495	0.306
NCI-H1755	0.801	0.732	0.631	0.85	0.566	0.577	0.542	0.413	0.771	0.316	0.474	0.408	0.469	0.431	0.35	0.411	0.505	0.384	0.611	0.36
NCI-H1792	0.67	0.668	0.318	0.384	0.366	0.505	0.432	0.393	0.592	0.344	0.248	0.274	0.24	0.297	0.227	0.758	0.525	0.332	0.324	0.215
NCI-H1793	0.26	0.215		0.288	0.221	0.176	0.16	0.194	0.146	0.167	0.295	0.308	0.227	0.347	0.288	0.499	0.676	0.326	0.407	0.359
NCI-H1915	0.672	0.548		0.622	0.486	0.957	0.673	0.732	0.873	0.761	1.08	0.914	0.907	0.897	0.671	0.788	0.7	0.616	0.728	0.671
NCI-H1944	0.445	0.466	0.385	0.434	0.421	0.841	0.691	0.669	0.879	0.763	0.395	0.294	0.332	0.377	0.345	0.598	0.537	0.451	0.525	0.258

— the supplement of paper PMC10307832
